Read-outs that look alike come from different tables or passages of the source. Marks after values point to notes of the source that are not given here.

These results are taken from US20050282893A1 (priority 2004, published 2005).

Data set [1] concerns RCC45. Nature of the data set: 5-Fluorouracil inhibition of BrdU incorporation (ELISA), RCC45. It is filed as cell-based. On the procedure: (§1) A study was performed using two renal cell carcinoma cells (RCC45 and RCC54). 5-Fluorouracil was used as the chemotherapeutic agent. Cells were treated with 5-fluorouracil for 96 hours, with and without PPS. The drug effect was measured as inhibition of the incorporation of a DNA precursor (bromodeoxyuridine or BrdU) using ELISA.
(In general: Incorporation of labelled thymidine or its analogues reports DNA synthesis.)

For data set [2], the system named is RCC54. Nature of the data set: 5-Fluorouracil inhibition of BrdU incorporation (ELISA), RCC54. It is filed as cell-based. On the procedure:
as §1

The test system of data set [3] is human pharynx FaDu xenografts.
Method: Xenografts were formed by subcutaneous injection of 106 viable tumor cells in 0.1 ml physiologic saline in the right and left flank areas, and were allowed to grow for about 14 days to reach a size of >15 mm^3 before drug treatment was started. […] The saline control group received injections of 200 μl/day of physiological saline for five consecutive days. The paclitaxel group received injections of 10 mg/kg/day paclitaxel dissolved in Cremophor and ethanol (i.e., Taxol) in a volume of 200 μl for five consecutive days. […] Animal weights and tumor sizes were measured on days 1, 3, 6, 8, and 10 after initiation of the paclitaxel treatment.
The antitumor effect of the drug treatments was measured in three ways. The first was the reduction in tumor size. Tumor sizes were determined by first preparing a mold of the extruding tumor using Jeltrate, a rapidly setting molding material, and then preparing and weighing the countermold. Second, the apoptotic effect was measured. The animals were euthanized on day 10, and the tumors were harvested and fixed in formalin. Histologic sections of 5-micron thickness were prepared and stained with hematoxylin and eosin. The tumor sections were evaluated morphologically for tumor cell density, and density of apoptotic cells. Because apoptotic cells disappear over time, the density of non-apoptotic cells is a secondary indicator of apoptosis. Cell densities were determined by counting the number of cells in four randomly selected microscopic fields at 400× magnification, using image analysis procedures (Song, et al., Proc. Natl. Acad. Sci. USA, 97:8658-8663, 2000). Third, the ability of drug treatment to prolong the survival time was measured. For this study, the animals were monitored for 100 days, or until moribundity, defined by a tumor length exceeding 1.0 cm, was reached.
The subject of data set [4] is FaDu cells. Nature of the data set: Paclitaxel cytotoxicity (SRB method) in hTR antisense-transfected FaDu cells. It is filed as cell-based. Particulars: Homo sapiens, paclitaxel 96 hours. On the procedure:
Effect of hTR antisense on the cytotoxic effect of […]. Two clones of cells that were stably transfected with the hTR antisense were studied. The cytotoxic effect of paclitaxel was quantified using the SRB method, which measures the total cellular proteins. The cells transfected with hTR antisense were treated with IPTG for 44 (clone#1) to 57 (clone #2) days, and then with paclitaxel for 96 hours.

In data set [5] the test system is stage IIIB/IV nonsmall cell lung cancer. Particulars: 290 patients; cited from earlier work.
The conditions of data set [6]: fifteenth day of oral treatment, about 400 mg per meter squared per day; cited from earlier work.
In data set [7] the target is telomerase (Homo sapiens, UniProt O14746). Kind of data set: Telomerase activity after PPS exposure, modified quantitative TRAP assay. It is filed as cell-based. On the procedure:
Inhibition of telomerase activity in cell lysates and intact cells. The modified Telomeric Repeat Amplification Protocol (TRAP) assay (Gan, et al., Pharm. Res., 18:488-493, 2001) was used to detect telomerase activity in cell lysate. The telomerase activity in intact cells was measured using intracellular TRAP, as follows. Cells (1×10^5) were washed twice with PBS and centrifuged. The cell pellet was resuspended in 100 μl of serum-free RPMI 1640 containing 5 u/ml of Streptolysin O, 2 μM of TS primer, and 50 μM of dNTP, and incubated at room temperature for 5 min. The enzyme streptolysin O was used to increase the cell membrane permeability to the TS primer. Upon entering a cell, the TS primer was elongated by the intracellular telomerase in situ. The elongated TS primer was then isolated from the cells and used as the template for PCR amplification. Then 200 μl of RPMI 1640 medium containing 10% FBS was added to the cells to stop the permeating process. The mixture was incubated at 30° C. for 30 min to allow the extension of intracellular TS primer by telomerase. The cells were then lyzed and the cell lysates, which contained the already extended TS primer, was directly analyzed by TRAP.
Treatment Protocol. Treatment with PPS was initiated after cells were allowed to attach to the growth surface in culture flasks. On the day of experiments, the culture medium was removed and replaced with inhibitor-containing medium. Drug concentrations of 0, 0.1, 1, 10, 100, 1000 μg/ml of PPS were employed. Telomerase activity was measured by the modified quantitative TRAP assay.

For data set [8], the system named is anticoagulation. Particulars: cited from earlier work.
In data set [9] the test system is renal cell carcinoma cells (RCC45 and RCC54). Kind of data set: PPS single agent cytotoxicity, BrdU incorporation, renal cell carcinoma cells. In kind it is cell-based.

Chain of telomerase (O14746 whole entry): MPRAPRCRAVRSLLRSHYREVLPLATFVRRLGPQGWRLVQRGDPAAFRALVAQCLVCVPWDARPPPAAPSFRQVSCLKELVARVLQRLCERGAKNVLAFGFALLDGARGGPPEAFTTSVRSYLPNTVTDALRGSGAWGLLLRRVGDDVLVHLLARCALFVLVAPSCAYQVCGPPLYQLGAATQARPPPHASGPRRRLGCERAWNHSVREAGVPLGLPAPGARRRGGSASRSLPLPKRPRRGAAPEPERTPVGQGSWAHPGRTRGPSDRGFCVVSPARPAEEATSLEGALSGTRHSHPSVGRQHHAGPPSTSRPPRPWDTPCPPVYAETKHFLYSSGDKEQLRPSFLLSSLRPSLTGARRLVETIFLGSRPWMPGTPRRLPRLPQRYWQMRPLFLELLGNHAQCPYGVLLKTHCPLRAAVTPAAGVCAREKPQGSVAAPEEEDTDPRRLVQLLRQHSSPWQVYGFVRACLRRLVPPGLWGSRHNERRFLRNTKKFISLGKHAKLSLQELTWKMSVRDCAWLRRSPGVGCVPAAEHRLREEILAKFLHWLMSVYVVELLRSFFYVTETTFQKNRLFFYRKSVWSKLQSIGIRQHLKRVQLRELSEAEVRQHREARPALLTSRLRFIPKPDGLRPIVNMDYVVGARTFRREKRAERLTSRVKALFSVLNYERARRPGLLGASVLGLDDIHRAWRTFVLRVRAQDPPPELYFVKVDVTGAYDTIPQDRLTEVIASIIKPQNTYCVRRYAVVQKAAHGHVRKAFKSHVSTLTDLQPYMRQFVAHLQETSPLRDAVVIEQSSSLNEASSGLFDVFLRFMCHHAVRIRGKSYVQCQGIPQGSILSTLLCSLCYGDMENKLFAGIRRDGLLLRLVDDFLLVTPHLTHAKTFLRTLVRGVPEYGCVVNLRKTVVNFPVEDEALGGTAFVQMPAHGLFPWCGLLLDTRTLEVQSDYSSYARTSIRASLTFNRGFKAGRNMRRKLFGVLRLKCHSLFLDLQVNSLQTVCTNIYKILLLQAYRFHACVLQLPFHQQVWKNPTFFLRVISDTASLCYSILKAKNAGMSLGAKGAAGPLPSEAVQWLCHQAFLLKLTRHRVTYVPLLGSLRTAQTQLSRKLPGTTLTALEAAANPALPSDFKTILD
Chain of telomerase (O60832 whole entry partner): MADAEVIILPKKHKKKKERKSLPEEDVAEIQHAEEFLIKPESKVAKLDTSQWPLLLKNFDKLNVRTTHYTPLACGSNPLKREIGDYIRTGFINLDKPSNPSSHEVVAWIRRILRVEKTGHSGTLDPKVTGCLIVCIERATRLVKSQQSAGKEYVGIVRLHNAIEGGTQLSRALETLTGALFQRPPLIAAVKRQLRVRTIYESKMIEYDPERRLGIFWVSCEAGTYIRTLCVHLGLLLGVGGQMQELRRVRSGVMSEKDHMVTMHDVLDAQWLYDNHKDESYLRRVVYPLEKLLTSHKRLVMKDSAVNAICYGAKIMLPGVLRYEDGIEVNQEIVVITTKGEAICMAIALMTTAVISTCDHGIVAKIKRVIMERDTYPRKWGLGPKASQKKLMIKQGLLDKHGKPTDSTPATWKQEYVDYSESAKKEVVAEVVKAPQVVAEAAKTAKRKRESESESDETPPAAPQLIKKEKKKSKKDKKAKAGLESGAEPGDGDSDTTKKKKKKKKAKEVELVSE
Chain of telomerase (Q9NPE3 whole entry partner): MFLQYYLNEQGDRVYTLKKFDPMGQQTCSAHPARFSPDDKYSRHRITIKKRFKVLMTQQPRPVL
Chain of telomerase (Q9NX24 whole entry partner): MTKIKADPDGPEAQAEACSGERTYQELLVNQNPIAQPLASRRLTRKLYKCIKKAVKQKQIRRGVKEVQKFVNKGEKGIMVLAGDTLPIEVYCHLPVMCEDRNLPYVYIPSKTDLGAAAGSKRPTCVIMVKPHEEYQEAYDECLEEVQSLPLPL
Chain of telomerase (Q9NY12 whole entry partner): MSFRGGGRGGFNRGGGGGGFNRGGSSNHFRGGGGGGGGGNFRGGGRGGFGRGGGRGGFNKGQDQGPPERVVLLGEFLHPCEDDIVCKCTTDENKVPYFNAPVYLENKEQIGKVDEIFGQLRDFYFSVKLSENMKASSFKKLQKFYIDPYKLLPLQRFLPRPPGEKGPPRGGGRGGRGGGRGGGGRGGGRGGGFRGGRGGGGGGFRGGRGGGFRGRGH

The term IC50 denotes the point on the concentration scale where inhibition reaches its midpoint. `O=c1[nH]cc(F)c(=O)[nH]1` [5-fluorouracil]: the IC50 in data set [1] (RCC45, No PPS) was 7580 nM; in data set [1] (RCC45, With 10 μg/ml PPS) it was 5150 nM; in data set [2] (RCC54, No PPS), 7270 nM; in data set [2] (RCC54, With 10 μg/ml PPS), 4650 nM; in data set [2] (RCC54, With 10 μg/ml PPS plus 30 μM suramin), 2340 nM; in [2] (RCC54, With 100 μg/ml PPS), 3580 nM.
`CC(=O)O[C@H]1C(=O)[C@@]2(C)[C@H]([C@H](OC(=O)c3ccccc3)[C@]3(O)C[C@H](OC(=O)[C@H](O)[C@@H](NC(=O)c4ccccc4)c4ccccc4)C(C)=C1C3(C)C)[C@]1(OC(C)=O)CO[C@@H]1C[C@@H]2O` [paclitaxel]: in data set [3] (Kaplan Meier analysis, monitored for 100 days), the “median time to reach moribundity” value stood at 42 days. In addition, the “% Apoptotic cells per tumor” value in data set [3] (day 10 tumors, Mean ± SD) was 30 ± 17%^a. In data set [3] (day 10 tumors, Mean ± SD), the “Number of apoptotic cells per 400x field” value is on record as 66 ± 34^a. The “Number of nonapoptotic cells per 400x field” value in [3] (day 10 tumors, Mean ± SD) is 168 ± 53^a. Besides, the “End-of-experiment body weight, % of pretreatment value” in data set [3] (mouse, in vivo) is 97 ± 6^a % of pretreatment value. Also, the “body weight loss compared to the pretreatment weight” value in data set [3] (mouse, in vivo) is on record as less than 3%. In addition, in data set [3] (of 12 animals), the tumor-free survivors entry is “did not show tumor-free survivors”. In data set [3] (single agents), the toxicity-related death result is recorded as “no toxicity-related death”. The IC50 came to 2.42 nM in [4] (96 h, +IPTG cells, read-out: IC50 of paclitaxel, clone #1); 2.53 nM in data set [4] (96 h, +IPTG cells, read-out: IC50 of paclitaxel, clone #2); 2.46 nM in data set [4] (96 h, +antisense cells (no IPTG), read-out: IC50 of paclitaxel, clone #1); 2.87 nM in data set [4] (96 h, +antisense cells (no IPTG), read-out: IC50 of paclitaxel, clone #2); 2.56 nM in [4] (96 h, +sense +IPTG cells, read-out: IC50 of paclitaxel, clone #1); 2.21 nM in data set [4] (96 h, +sense +IPTG cells, read-out: IC50 of paclitaxel, clone #2). The IC50 in data set [4] (96 h, Control cells, read-out: IC50 of paclitaxel, clone #1) amounted to 2.04 nM; in data set [4] (96 h, Control cells, read-out: IC50 of paclitaxel, clone #2) it was 2.05 nM; in data set [4] (+antisense +IPTG cells (IPTG 44 days), read-out: IC50 of paclitaxel, clone #1), 1.3 nM; in [4] (+antisense +IPTG cells (IPTG 57 days), read-out: IC50 of paclitaxel, clone #2), 1.33 nM.
In the case of paclitaxel/carboplatin, in data set [5], the MST is given as 8.1 months, the TTP was 3.1 months, the complete response is less than 1% and the overall response rate result is recorded as “about 17%”.
As for pentosan polysulfate [PPS], in data set [6], the plasma concentrations is 200 to 460 ng/mL. The “concentration resulting in 50% inhibition of telomerase activity” value in data set [7] (FaDu cells) amounted to 0.56 µg/mL. Also, in [7] (SKOV-3 cells), the “concentration resulting in 50% inhibition of telomerase activity” value amounted to 0.60 µg/mL. For the same molecule, in data set [7] (both cells (FaDu and SKOV-3)), the “concentrations resulting in 80% inhibition of telomerase activity” value is “less than 10 μg/ml” and the “concentrations resulting in 90% inhibition of telomerase activity” value is “less than 100 μg/ml”. Besides, in [7] (summary of Example 3), the “concentrations required for 50% inhibition of telomerase activity” value was 0.5 to 0.6 µg/mL. The “concentrations at which anticoagulation is found” value in data set [8] was “above 1 μg/ml”. In data set [9] (96 hours, BrdU incorporation), the “IC50 of PPS as a single agent” value is recorded as ~1,400 μg/ml. Also, in data set [9] (at 10 and 100 μg/ml), the “cytotoxicity of PPS” value is listed as “no cytotoxicity”.
